According to patent publication US20260069581A1, “METHODS AND COMPOSITIONS FOR CANCER THERAPY” (OHIO STATE INNOVATION FOUNDATION, priority 2020, published 2026):

Key:
[1] = tested on: NHEJ activity in EJDR-reporter-stable U2OS cells; assay: EJDR reporter assay, NHEJ DsRed; type: cell-based
Experimental: EJDR reporter assay. The EJDR assay was described previously (20). EJDR reporter cells were plated at 5×10^5 cells per well in 10% FBS and RPM11640. After drug treatments, cells were grown in 10% Tet-free FBS (100-800; Gemini) and RPM11640. Incorporated I-Sce1 was induced with Shield1 (632189; Clontech) and triamcinolone (TA) (T6510; Sigma Aldrich) ligands for 24 hours. NHEJ and HR repair activities were assessed 48 hours post induction by quantification of DsRed- and GFP-positive cells on Cytomics FC 500 Flow Cytometer (Beckman Coulter, Brea, CA).
It was unclear whether the potent ability of HDAC inhibitor to induce apoptosis of AML cells in combination with NAMPT inhibition was due to the loss of HR or NHEJ activity alone or both together. Accordingly, HR and NHEJ activities in AML cells exposed to these treatments were examined using the EJDR reporter system (FIG. 6B). EJDR-reporter-stable U2OS cells were treated with vehicle, single agents, or drug combination before being incubated with ligands, TA and Shield 1. […] The expression of D-NHEJ pathway factors, Ku70 and DNA-PKcs, and ATM pathway mediators, CHEK1 and CHEK2, were abolished by AR-42 and KPT-9274 co-treatment. […] Therefore, suppression of HDAC8 can attenuate HR and D-NHEJ gene expressions, resulting in NAMPT inhibitor sensitivity.

[2] = tested on: luciferase-tagged MOLM13 cells; assay: In vivo MOLM13 xenograft study, efficacy; settings: MOLM13-engrafted NCG mice; KPT-9274 100 mg/kg daily, AR-42 20 mg/kg every another day, oral gavage
Experimental: NCG mice were engrafted with luciferase-tagged MOLM13 cells and treated with vehicle, 20 mg/kg AR-42, 100 mg/kg KPT-9274 and AR-42/KPT-9274 in combination.
Male NOD-Prkdc^em26cd52Il2rg^em26cd22/NjuCrl (NCG) mice (RRID:IMSR_CRL:572) (aged 6-8 weeks) were obtained from Charles River Laboratory. Mice were group-housed under conditions of constant photoperiod (12-hour light/12-hour dark), temperature, and humidity with adlibitum access to water and irradiated standard pelleted chow. 104 luciferase-tagged MOLM13 cells were injected via tail vein into NCG mice. On day 5 post-engraftment, mice were randomized to receive placebo (vehicle; Karyopharm Therapeutics) once daily, 100 mg/kg of KPT-9274 (Karyopharm Therapeutics) once daily, 20 mg/kg AR-42 every another day and the combination of KPT-9274 and AR-42 via oral gavage. Overall survival was the primary end point for the majority of the mice. A separate cohort of mice per group was used to monitor leukemic progression using IVIS imaging. Mice were monitored by animal technicians who were blinded to the treatment groups and determined when mice met early removal criteria (20% weight loss, lethargy, hunching, and poor body condition). Mice were euthanized by CO2 inhalation.
To determine the clinical relevance of the drug combination, the efficacy of co-treatment of AR-42 and KPT-9274 was tested in the MOLM13 xenograft model. […]

[3] = tested on: DNA repair genes in patient LICs (CD34+ CD38−); assay: LC-RNA-seq of primary patient LICs; type: cell-based, human
Experimental: FIG. 5A-5E show representative data that AR-42 and KPT-9274 synergistically alter DNA repair gene sets of LIC transcriptomes. […] Briefly, primary cells from 5 patients were treated with drug combination or vehicle for 12 hours before LICs (CD34^+ CD38^−) were sorted for LC-RNA-seq. […] Cutoff Log 2FC=1.5; p-value<10e^−2. […] The hierarchical clustering of genes and samples was performed using Euclidean distance matrix and Ward's clustering method.
Limiting cell-RNA-seq (LC-RNA-seq) for primary patient LICs. LC-RNA-seq was performed as previously described to determine transcriptome profiles and differentially expressed genes (DEGs) of patient LICs treated with various inhibitors (21). Briefly, patient cells were cultured in the presence of cytokines and treated with vehicle, single agents or drug combination. 300 viable LICs from treated patient samples were sorted directly into SMART-seq lysis buffer with FACSAria Fusion (BD) based on putative stem cell markers CD34^+ CD38^− (22). […] The Clontech SMARTer v4 kit (Takara Bio USA, Inc., Mountain View, CA) was used for preamplifying samples prior to library construction with the Nextera XT DNA Library Prep Kit (Illumina, Inc., San Diego, CA). Samples were sequenced to a depth of 15-20 million 2×150 bp clusters with the Illumina HiSeq 4000 platform. After quality control with CLEAR selection process and size-normalization, DEGs were called with DESeqs with (FDR) adjusted p-value <0.05. Principle component analysis (PCA) plots were created from count tables which were normalized by size and transformed. For pathway analysis, the list of DEGs, containing gene IDs and corresponding expression values, was uploaded into the IPA software (Qiagen) (Ingenuity Pathway Analysis, RRID:SCR_008653). […]
The synthetic lethality of AR-42 and KPT-9274 is conferred by simultaneous suppression of HR and NHEJ pathways in leukemia initiating cells (LICs). […] Treated LICs were analyzed for transcriptional differences and DNA repair mechanisms were highlighted.

[4] = In vivo MOLM13 xenograft study, toxicities and weight; parameters: species or system NCG mice; settings: over the course of the study (FIG. 11B)
Source text: FIG. 11A show H&E images of tissues obtained from MOLM13 xenograft mice that with the magnification and treatments as indicated in the figure. The images were representative of 3 different fields. […] FIG. 11B show weight change data of MOLM13 xenograft mice in response to different treatments.
In vivo MOLM13 xenograft study. All experiments were approved by the OSU Institutional Animal Care and Use Committee. Male NOD-Prkdc^em26cd52Il2rg^em26cd22/NjuCrl (NCG) mice (RRID:IMSR_CRL:572) (aged 6-8 weeks) were obtained from Charles River Laboratory. Mice were group-housed under conditions of constant photoperiod (12-hour light/12-hour dark), temperature, and humidity with adlibitum access to water and irradiated standard pelleted chow. […] luciferase-tagged MOLM13 cells were injected via tail vein into NCG mice. On day 5 post-engraftment, mice were randomized to receive placebo (vehicle; Karyopharm Therapeutics) once daily, 100 mg/kg of KPT-9274 (Karyopharm Therapeutics) once daily, 20 mg/kg AR-42 every another day and the combination of KPT-9274 and AR-42 via oral gavage. Overall survival was the primary end point for the majority of the mice. […] Mice were monitored by animal technicians who were blinded to the treatment groups and determined when mice met early removal criteria (20% weight loss, lethargy, hunching, and poor body condition). […]

Compound	NHEJ activity (percentage of DsRed+ cells) [1]	median survival time [2]	mRNA levels of HR genes (NBN, RBBP8, RAD51, BRCA1), D-NHEJ genes (XRCC4, XRCC5) and ATM pathway genes (CHEK1, CHEK2) ([3]; AR-42 alone or in combination with KPT-9274, 12 hours)	weight loss [4]	BRCA1 and XRCC4 expression ([3]; KPT-9274 alone, in some patients)	yields of D-NHEJ transcripts (XRCC6, PRKDC) and B-NHEJ gene PARP1 ([3]; in all patients)
CC(C)[C@H](C(=O)Nc1ccc(C(=O)NO)cc1)c1ccccc1 [AR-42, (S)—N-Hydroxy-4-(3-methyl-2-phenylbutanamido)benzamide]	NHEJ deficiency	29 days	downregulated	did not observe any noticeable weight loss	–	–
Nc1ccc(/C=C/C(=O)NCc2cc3cc(-c4ccc(C(=O)N5CCC(F)(F)CC5)cc4)cc(-c4ccc(F)cc4)c3o2)cn1 [KPT-9274, (E)-3-(6-aminopyridin-3-yl)-N-[[5-[4-(4,4-difluoropiperidine-1-carbonyl)phenyl]-7-(4-fluorophenyl)-1-benzofuran-2-yl]methyl]prop-2-enamide]	more robust reduction	27 days	–	–	upregulated	decreased
